Test results as given in US7790762B2, “Compounds and methods for thiol-containing compound efflux and cancer treatment” (National Jewish Health, priority 2002, dated 2010).
Read-outs that look alike come from different tables or passages of the source. Marks after values point to notes of the source that are not given here.

Assays:
[1] = test system: HL-60 cells; assay: Cytotoxicity as LDH release in HL-60 cells; assay type: cell-based, human
Protocol: (§1) Cell lines and culture conditions. Human lung epithelial cancer (A549), human leukemia HL-60 and human prostate (PC-3) tumor cells were purchased from ATCC (Manassas, Va.). A549 and PC-3 cells were grown in Ham's F12 medium (F12) and Kaighn's modification of Ham's F12 medium (F12K) with 2 mM L-glutamine (ATCC), respectively, supplemented with 10% fetal bovine serum (FBS) and 5% pen/strep (10,000 unit, Cellgro). HL-60 cells were grown in Iscove's modified Dulbecco's medium with 4 mM L-glutamine (ATCC) supplemented with 20% FBS and 5% pen/strep. Cell were grown in T-75 flask at 37° C. and 5% CO2 air atmosphere and in 24-well plates for GSH levels and LDH release measurements.
(§2) Assessment of cytotoxicity. In one exemplary method, membrane integrity of A549, HL-60 and PC-3 cells was used as an index of drug-induced cytotoxicity, and was assessed by monitoring the release of cytosolic lactate dehydrogenase (LDH). LDH activity was measured in the culture medium and cell lysates (50 mM HEPES, Triton X-100 0.5%, pH 7) using a plate reader format as previously described (41). Briefly, 5 μl of cell culture supernatant and lysates were incubated with 0.24 mM NADH in a Tris/NaCl pH 7.2 buffer in 96-well plates for 5 min at 25° C. The reaction was started by the addition of 9.8 mM pyruvate and the consumption of NADH followed at 340 nm for 5 min at 30° C. Percent LDH release was calculated by the following: (supernatant LDH/supernatant LDH+lysate LDH)×100.

[2] = test system: A549 cells; assay: Intracellular GSH levels by HPLC-EC in A549 cells; assay type: cell-based, human; conditions: for activity at 25 µM: Homo sapiens
Protocol: as §1
(§3) Intracellular levels of GSH. Intracellular GSH levels can be determined by HPLC-EC. Cultured cells from 24-well plates were washed once with 1 ml of PBS and then re-suspended in 0.5 ml of distilled water with 40 μM of digitonin (2 mM stock solution in DMSO) for 30 min at room temperature. Then, 50 μl of 10% meta-phosphoric acid were added (1% final concentration), the samples were sonicated for 2 min, centrifuged at 20,000 g for 10 min, and 0.2 ml of supernatant placed in vials for HPLC analysis. […] The flow rate was […]. The retention time for GSH in these conditions was 7.5 min. The HPLC instrument was from ESA, Inc. (Chelmsford, Mass.), equipped with an autosampler (model 540) and a Coul array detector (model 5600A). The potential applied was +0.75 V vs. H/Pd electrode, and the injection volume 5 μl.

[3] = test system: HL-60 cells; assay: Intracellular GSH levels by HPLC-EC in HL-60 cells; assay type: cell-based, human; conditions: for activity at 25 µM: HL-60, 25 μM
Protocol: as §1, §3

[4] = test system: PC-3 cells; assay: Intracellular GSH levels by HPLC-EC in PC-3 cells; assay type: cell-based, human; conditions: for activity at 25 µM: Homo sapiens, read-out: Int. GSH % con.
Protocol: as §1, §3

[5] = test system: A549 cells; assay: Extracellular GSH in culture supernatants of A549 cells (HPLC-FD, mBBr); assay type: cell-based, human; conditions: 25 μM, 2 hours of treatment (FIG. 19D)
Protocol: Extracellular levels of GSH. Extracellular GSH in the culture media supernatants of A549, HL-60 and PC-3 cells were measured by an HPLC-FD method of GSH analysis after derivatization with monobromobimane (mBBr). […] The mixture was incubated in dark at room temperature for 30 min, and the reaction was stopped by addition of 10 μl of 70% perchloric acid. The samples were centrifuged at 16,000 g for 10 min and 0.18 ml of supernatant placed in vials for HPLC analysis. The HPLC column used was Synergi 4u Hydro-RP 80A (C18) (150×4.6 mm) from Phenomenex (Torrance, Calif.) and the mobile phase a mixture of 1% acetic acid in H2O (pH adjusted to 4.25 using NH4OH) with 7% acetonitrile. The flow rate was 1 ml·min^−1 and the injection volume 1 μl. The detector excitation and emission wavelengths were […], respectively. The retention time for the GSH derivative was 9.5 min.

[6] = test system: PC-3 cells; assay: Cytotoxicity as LDH release in PC-3 cells; assay type: cell-based, human
Protocol: as §1, §2

[7] = test system: A549 cells; assay: Cytotoxicity as LDH release in A549 cells; assay type: cell-based, human
Protocol: as §1, §2

[8] = test system: epithelial cells; assay: Extracellular GSH transport, Transwell Studies (Table 3); assay type: cell-based
[9] = test system: epithelial cells; assay: Effects of compounds on extracellular GSH transport (Table 3); assay type: cell-based
[10] = test system: HL-60 cells; assay: Cellular superoxide by flow cytometry with hydroethidine in HL-60 cells; assay type: cell-based, human
Protocol: Flow cytometry. In one exemplary method, cellular superoxide (O2^−) was measured by flow cytometry analysis using hydroethidine (HE) (30). Untreated and treated HL-60 cells (approximately 10^6) were exposed to HE (1 μM from 1 mM stock solutions in DMSO) for 30 min, then were centrifuged at 3,500 g for 15 min, and washed once with 1 ml ice-cold PBS. Cells were re-suspended in 0.5 ml ice-cold PBS, and HE oxidation product, i.e., ethidium bromide (EB), analyzed within 30 min using the red channel (PE) of a FACSCalibur flow cytometer from Becton Dickinson Biosciences (San Jose, Calif.). The total number of cell counts was 25,000.

[11] = Epithelial lining fluid (ELF) GSH concentration in dexamethasone treated mice; assay type: in vivo, Wild type (C57/B6) mice; conditions: 1 mg/kg intraperitoneal daily for two days, BALF at 48 hours; mean±standard error
Protocol: FIG. 17 Dexamethasone-Induced Changes in Epithelial Lining Fluid (ELF) Glutathione (GSH) Concentrations. Wild type (C57/B6) mice were given a 1 mg/kg dexamethasone (DEX) injection (intraperitoneal) daily for two days. Bronchoalveolar lavage fluid (BALF) was obtained at 48 hours after the first initial dose and GSH concentrations determined. BALF was obtained through a tracheal canula with a single 2.0 mL aliquots of phosphate-buffered saline (pH 7.4) that was instilled into the lung and withdrawn only once. The BALF was centrifuged at 4000×g to remove cells (i.e., alveolar macrophages). The cell-free BALF was acidified with metaphosphoric acid to a final concentration of 1% metaphosphoric acid and centrifuged at 20,000×g to pellet the precipitated proteins. GSH concentrations were determined by HPLC coupled with electrochemical detection. ELF concentrations of GSH were calculated from BALF concentrations multiplied by a dilution factor derived from the difference in serum and BALF urea concentrations. […] Data are shown as the mean±standard error for n≧4 with significance attained at p≦0.05.
Serum and BALF Urea Concentrations. […] ELF concentrations are then calculated by multiplying the BALF concentrations by the dilution factor. Urea concentrations in the samples are determined using a commercially available reagent (Sigma Diagnostics 66-20; St. Louis, Mo.).

[12] = test system: P-gp; conditions: single dose; renal basement membrane, liver and intestine; cited from earlier work
[13] = Homo sapiens, HL-60, 50 μM, 48 hours treatment, read-out: LDH rel. % con.
[14] = A549, 25 μM, 2 h, read-out: Intracellular GSH levels, % compared to control
[15] = A549, 25 μM, 4 h, read-out: Intracellular GSH levels, % compared to control
[16] = A549, 25 μM, 24 hours treatment, read-out: Int. GSH % con.
[17] = Homo sapiens, 24 hours treatment, read-out: Int. GSH % con.
[18] = PC-3, 25 μM, 24 hours treatment
[19] = Homo sapiens, A549, 75 μM, 48 hours treatment, read-out: LDH rel. % con.
[20] = Homo sapiens, PC-3, 50 μM, 48 hours treatment, read-out: LDH rel. % con.

O=C(/C=C/c1ccccc1)c1ccccc1O [2′-HC, 2′-hydroxychalcone]
LDH release, % of control at 50 µM [1, 13]: 320%
activity at 25 µM [2, 14]: < 5%
activity at 25 µM [2, 15]: < 5%
activity at 25 µM [2, 16]: < 5%
activity at 25 µM [3, 17]: < 5%
activity at 25 µM [4, 18]: 93%
extracellular GSH levels [5]: increased levels of GSH in the supernatants
LDH release, % of control at 25 µM ([6]; Homo sapiens, PC-3, 25 μM, 48 hours treatment, read-out: LDH rel. % con.): 227%
LDH release, % of control at 75 µM [7, 19]: 515%

COc1ccc(-c2coc3cc(O)cc(O)c3c2=O)cc1 [Biochanin A]
% Increase Over Control (extracellular GSH) ([8]; 50 μM): 174 ^a %
LDH rel. % con. ([1]; HL-60, 50 μM, 48 hours treatment): 133 % con.
% Increase Over Control (extracellular GSH) ([9]; 50 μM): 133 ^c %
Intracellular GSH levels, % compared to control ([2]; A549, 25 μM, 4 h): 36.8 ± 0.9%
Int. GSH % con. ([2]; A549, 25 μM, 24 hours treatment): <5 % con.
Int. GSH % con. ([3]; HL-60, 75 μM, 24 hours treatment): 20 % con.
Int. GSH % con. [4, 18]: 81 % con.
LDH rel. % con. ([6]; PC-3, 50 μM, 48 hours treatment): 127 % con.
LDH rel. % con. ([7]; A549, 75 μM, 48 hours treatment): 230 % con.

O=C(/C=C/c1ccccc1)c1ccccc1 [Chalcone]
LDH release, % of control at 50 µM [1, 13]: 236%
activity at 25 µM [2, 14]: 48.5 ± 2.1%
activity at 25 µM [2, 16]: < 5%
activity at 25 µM [3, 17]: 100%
activity at 25 µM [4, 18]: 119%
extracellular GSH levels [5]: increased levels of GSH in the supernatants
LDH release, % of control at 50 µM [6, 20]: 229%
LDH release, % of control at 75 µM [7, 19]: 150%

O=c1cc(-c2ccccc2)oc2cc(O)cc(O)c12 [Chrysin, 5,7 dihydroxyflavone]
toxicity ([1]; HL-60 cells, 25 μM (FIG. 20A)): not toxic
effect on the toxicity of curcumin (25 μM), LDH release ([1]; HL-60 cells, 48 hours, compound 25 μM (FIG. 20A)): potentiated the toxicity of curcumin
LDH release, % of control at 50 µM [1, 13]: 195%
effect on intracellular GSH (words) ([2]; A549 cells): very potent inducer of intracellular GSH depletion
depletion of intracellular GSH ([2]; A549 cells, 25 μM, 2 hours of treatment): 50%
effect on intracellular GSH (words) ([2]; A549 cells, listed as chrysin): one active flavone-like structure for inducing GSH depletion
activity at 25 µM [2, 14]: 47.2 ± 4%
activity at 25 µM [2, 15]: 5.2 ± 0.5%
activity at 25 µM [2, 16]: < 5%
effect on intracellular GSH (words) ([3]; HL-60 cells): one active flavone-like structure for inducing GSH depletion
intracellular GSH levels in presence of curcumin ([3]; HL-60 cells (FIG. 20B)): induced GSH depletion in presence of curcumin
depletion of intracellular GSH ([3]; HL-60 cells, 50 μM, 24 hours): 50%
activity at 50 µM ([3]; Homo sapiens, HL-60, 50 μM, 24 hours treatment, read-out: Int. GSH % con.): 40%
activity at 25 µM [4, 18]: 51%
intracellular GSH, combination with curcumin ([4]; PC-3 cells (data not shown)): resulted in GSH depletion
depletion of intracellular GSH ([4]; PC-3 cells, 25 μM, 24 hours): 50%
O2^− levels on adding compound to curcumin treatment ([10]; HL-60 cells (FIG. 21B)): no increase of O2^− levels was observed, but rather a decrease after 4 hours
O2^− levels ([10]; HL-60 cells, 25 μM (FIG. 21B)): little change in O2^− levels
LDH release, % of control at 50 µM [6, 20]: 132%
effect on curcumin-induced toxicity, LDH release ([6]; PC-3 cells, 48 hours (FIG. 20C)): potentiated
effect on the toxicities of rotenone (20 μM), 2-ME (50 μM) and etoposide (40 μM) ([6]; PC-3 cells, 48 hours, compound 10-20 μM): potentiated
effect on the toxicity of etoposide ([7]; A549 cells, 48 hours, etoposide (10 µM)): failed to potentiate etoposide's toxicity
toxicity ([7]; A549 cells, after 48 hours of treatment): relatively low toxicity
LDH release, % of control at 75 µM [7, 19]: 225%

C[C@@H]1C[C@H]2[C@@H]3CCC4=CC(=O)C=C[C@]4(C)[C@@]3(F)[C@@H](O)C[C@]2(C)[C@@]1(O)C(=O)CO [Dexamethasone, 9-fluoro-11 b,17,21-trihydroxy-16a-methylpregna-1,4-diene-3,20-dione, reference compound]
activation at 50 µM ([9]; Epithelial cell, 50 μM, read-out: % Increase Over Control (extracellular GSH)): 178%
ELF concentrations of GSH [11]: 75.3 ± 12.0 µM

COc1ccc2c(c1)c(CC(=O)O)c(C)n2C(=O)c1ccc(Cl)cc1 [Indomethacin, 1-(4-chlorobenzoyl)-5-methoxy-2-methyl-1H-indole-3-acetic acid, reference compound]
% Increase Over Control (extracellular GSH) ([8]; 100 μM): 136 ^a %
LDH release, % of control at 25 µM ([1]; Homo sapiens, HL-60, 25 μM, 48 hours treatment, read-out: LDH rel. % con.): 126%
activation at 100 µM ([9]; Epithelial cell, 100 μM, read-out: % Increase Over Control (extracellular GSH)): 235%
activity at 25 µM [2, 14]: 71.4 ± 2.8%
activity at 25 µM [2, 15]: 7.8 ± 1.2%
activity at 25 µM [2, 16]: < 5%
activity at 25 µM [3, 17]: 49%
activity at 25 µM [4, 18]: 75%
LDH release, % of control at 50 µM [6, 20]: 122%
LDH release, % of control at 50 µM ([7]; Homo sapiens, A549, 50 μM, 48 hours treatment, read-out: LDH rel. % con.): 251%

N.N.[Cl][Pt][Cl] [cisplatin, cis-dichlorodiammne platinum (II)]
induction of P-gp [12]: 200-300 ×
